Tests used:
[1] = molecular target: T1, baculovirus-expressed human trkA cytoplasmic domain (Homo sapiens, UniProt P04629); assay: Inhibition of trkA tyrosine kinase activity (ELISA-based assay); format: biochemical; details: for trkA kinase activity % Inh. @ 300 nM (values in parentheses): 300 nM compound; for IC50: 40 μM ATP
T1 construct: baculovirus-expressed human trkA cytoplasmic domain; made in house; host or cells: baculovirus expression system
Procedure: Selected cyclic substituted fused pyrrolocarbazole and isoindolone compounds were tested for their ability to inhibit the kinase activity of baculovirus-expressed human trkA cytoplasmic domain using an ELISA-based assay as previously described (Angeles et al., Anal. Biochem. 236: 49-55, 1996). Briefly, the 96-well microtiter plate was coated with substrate solution (recombinant human phospholipase C-γ1/glutathione S-transferase fusion protein (Rotin et al., EMBO J., 11: 559-567, 1992). Inhibition studies were performed in 100 μl assay mixtures containing 50 mM Hepes, pH 7.4, 40 μM ATP, 10 mM MnCl2, 0.1% BSA, 2% DMSO, and various concentrations of inhibitor. The reaction was initiated by addition of trkA kinase and allowed to proceed for 15 minutes at 37° C. An antibody to phosphotyrosine (UBI) was then added, followed by a secondary enzyme-conjugated antibody, alkaline phosphatase-labelled goat antII-mouse IgG (Bio-Rad). The activity of the bound enzyme was measured via an amplified detection system (Gibco-BRL). Inhibition data were analyzed using the sigimoidal dose-response (variable slope) equation in GraphPad Prism.

[2] = molecular target: T2, VEGF receptor (human flk-1, KDR, VEGFR2) kinase domain (Homo sapiens, UniProt P35968); assay: Inhibition of vascular endothelial growth factor receptor kinase activity (ELISA); format: biochemical; details: for IC50: 40 μM ATP; for inhibition at 0.3 µM: read-out: VEGF receptor kinase activity % Inh. @ 300 nM (values in parentheses)
T2 construct: VEGF receptor (human flk-1, KDR, VEGFR2) kinase domain; made in house; host or cells: baculovirus expression system
T2 sequence (P35968 834-1162 limits assumed): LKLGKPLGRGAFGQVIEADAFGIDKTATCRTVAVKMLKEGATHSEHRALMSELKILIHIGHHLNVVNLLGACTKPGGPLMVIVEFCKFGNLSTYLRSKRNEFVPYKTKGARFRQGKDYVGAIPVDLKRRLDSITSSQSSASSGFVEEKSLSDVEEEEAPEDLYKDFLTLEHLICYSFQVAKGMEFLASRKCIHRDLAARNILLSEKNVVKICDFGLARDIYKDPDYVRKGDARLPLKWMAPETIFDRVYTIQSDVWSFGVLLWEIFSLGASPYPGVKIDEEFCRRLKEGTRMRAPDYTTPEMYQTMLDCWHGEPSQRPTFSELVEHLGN
Procedure: Cyclic substituted fused pyrrolocarbazole and isoindolone compounds were examined for their inhibitory effects on the kinase activity of baculovirus-expressed VEGF receptor (human flk-1, KDR, VEGFR2) kinase domain using the procedure described for the trkA kinase ELISA assay described above. The kinase reaction mixture, consisting of 50 mM Hepes, pH 7.4, 40 μM ATP, 10 mM MnCl2, 0.1% BSA, 2% DMSO, and various concentrations of inhibitor, was transferred to PLC-γ/GST-coated plates. VEGFR kinase was added and the reaction was allowed to proceed for 15 min. at 37 C. Detection of phosphorylated product was accomplished by addition of antII-phosphotyrosine antibody (UBI). A secondary enzymeconjugated antibody was delivered to capture the antibody-phosphorylated PLC-γ/GST complex. The activity of the bound enzyme was measured via an amplified detection system (Gibco-BRL). Inhibition data were analyzed using the sigmoidal dose-response (variable slope) equation in GraphPad Prism.

[3] = molecular target: T3, PDGFβ receptor kinase domain (recombinant human PDGFRβ) (Homo sapiens, UniProt P09619); assay: Inhibition of platelet derived growth factor receptor kinase activity (ELISA); format: biochemical; details: for inhibition at 0.3 µM: read-out: PDGFRβ % inh @ 300 nM (values in parentheses)
T3 construct: kinase activity of baculovirus-expressed PDGFβ receptor kinase domain; made in house; host or cells: baculovirus expression system
T3 sequence (P09619 600-962 limits assumed): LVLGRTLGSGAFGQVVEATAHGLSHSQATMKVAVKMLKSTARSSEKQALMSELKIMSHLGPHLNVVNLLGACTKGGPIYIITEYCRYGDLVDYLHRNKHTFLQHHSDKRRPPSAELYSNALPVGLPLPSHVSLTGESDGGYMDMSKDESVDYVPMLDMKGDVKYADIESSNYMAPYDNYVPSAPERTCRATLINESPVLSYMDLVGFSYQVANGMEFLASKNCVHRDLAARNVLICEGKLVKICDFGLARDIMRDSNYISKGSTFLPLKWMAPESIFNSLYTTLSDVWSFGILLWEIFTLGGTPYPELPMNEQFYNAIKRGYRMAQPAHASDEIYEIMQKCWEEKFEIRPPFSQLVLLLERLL
Procedure: Cyclic substituted fused pyrrolocarbazole and isoindolone compounds were examined for their inhibitory effects on the kinase activity of baculovirus-expressed PDGFβ receptor kinase domain using the trkA kinase ELISA described above. Assays were performed in substrate (PLC-γ/GST)-coated 96-well microtiter plates. Each 100-μl reaction mixture contained 50 mM HEPES, pH 7.4, 20 μM ATP, 10 mM MnCl2, 0.1% BSA, 2% DMSO, and various concentrations of inhibitor. The reaction was initiated by addition of prephosphorylated recombinant human enzyme (10 ng/ml PDGFRβ) and allowed to proceed for 15 minutes at 37° C. The prephosphorylated enzyme was prepared prior to use by incubation of the kinase in buffer containing 20 μM ATP and 10 mM MnCl2 for 1 hour at 4° C. Detection of phosphorylated product was done by adding horseradish peroxidase (HRP)-conjugated antII-phosphotyrosine antibody (UBI). The HRP substrate solution containing 3,3′-5,5′-tetramethylbenzidine and hydrogen peroxide was later added and the plates were incubated for 10 minutes at room temperature. The reaction was quenched with acid and the resulting absorbance was read at 450 nm using a Microplate Bio-kinetics Reader (Bio-Tek Instrument EL 312e). Inhibition data were analyzed using the sigmoidal dose-response (variable slope) equation in GraphPad Prism.

[4] = system: ChAT activity in dissociated rat embryonic spinal cord culture; assay: Enhancement of spinal cord ChAT activity; format: cell-based
From the text: As discussed above, CHAT is a specific biochemical marker for functional cholinergic neurons. Cholinergic neurons represent a major cholinergic input into the hippocampal formation, olfactory nucleus, interpeduncular nucleus, cortex, amygdala, and parts of the thalamus. In the spinal cord, the motor neurons are cholinergic neurons which contain CHAT (Phelps et al., J. Comp. Neurol. 273:459-472 (1988)). ChAT activity has been used to study the effects of neurotrophins (e.g., NGF or NT-3) on the survival and/or function of cholinergic neurons. The ChAT assay also serves as an indication of the regulation of ChAT levels within cholinergic neurons.
For example, in these assays, a compound was directly added to a dissociated spinal cord culture. Compounds which increased ChAT activity at least 120% of the control activity were considered active.
Methods: Fetal rat spinal cord cells were dissociated, and experiments were performed as described (Smith et al., J. Cell Biology 101:1608-1621 (1985); Glicksman et al., J. Neurochem. 61:210-221 (1993)). […] ChAT activity was measured after 2 days in vitro using a modification of the Fonnum procedure (Fonnum, J. Neurochem. 24:407-409 (1975)) according to McManaman et al. and Glicksman et al. (McManamnan et al., Developmental Biology 125:311-320 (1988); Glicksman et al., J. Neurochem., supra).

[5] = molecular target: protein kinase C (UBI; mixed isozymes of a, b, g); assay: Inhibition of protein kinase C activity (Millipore Multiscreen TCA in-plate assay); format: biochemical
Procedure: Protein kinase C activity was assessed using the Millipore Multiscreen TCA “in-plate” assay as described in Pitt, A. M. and Lee, C. (J. Biomol. Screening, 1: 47-51, 1996). Assays were performed in 96-well Multiscreen-DP plates (Millipore). Each […] assay mixture contained 20 mM Hepes, pH 7.4, 10 mM MgCl2, 2.5 mM EGTA, 2.5 mM CaCl2, […] phosphatidyl serine, […] diolein, […] histone H-1 (Fluka), […] [γ-^32P]ATP, 1.5 ng protein kinase C (UBI; mixed isozymes of a, b, g), 0.1% BSA, 2% DMSO, and test cyclic substituted fused pyrrolocarbazole compound. The reaction was allowed to proceed for 10 min at 37° C., then quenched by adding ice cold 50% trichloroacetic acid. The plates were allowed to equilibrate for 30 min at 4° C., then washed with ice cold 25% TCA. Scintillation cocktail was added to the plates, and the radioactivity was determined using Wallac MicroBeta 1450 PLUS scintillation counter. The IC50 values were calculated by fitting the data to the sigmoidal dose-response (variable slope) equation in GraphPad Prism.

[6] = molecular target: T4, trkA (NIH3T3 cells transfected with trkA) (Homo sapiens, UniProt P04629); assay: Inhibition of NGF-stimulated trk phosphorylation in a whole cell preparation; format: cell-based; details: NGF 10 ng/ml; for Cell Score @ 100 nM (percent decrease in trk protein band): 100 nM compound; for Cell Score @ 1 uM (percent decrease in trk protein band): 1 uM compound
T4 construct: expressed in transfected cells; host or cells: NIH3T3
T4 sequence (P04629 33-796, species assumed): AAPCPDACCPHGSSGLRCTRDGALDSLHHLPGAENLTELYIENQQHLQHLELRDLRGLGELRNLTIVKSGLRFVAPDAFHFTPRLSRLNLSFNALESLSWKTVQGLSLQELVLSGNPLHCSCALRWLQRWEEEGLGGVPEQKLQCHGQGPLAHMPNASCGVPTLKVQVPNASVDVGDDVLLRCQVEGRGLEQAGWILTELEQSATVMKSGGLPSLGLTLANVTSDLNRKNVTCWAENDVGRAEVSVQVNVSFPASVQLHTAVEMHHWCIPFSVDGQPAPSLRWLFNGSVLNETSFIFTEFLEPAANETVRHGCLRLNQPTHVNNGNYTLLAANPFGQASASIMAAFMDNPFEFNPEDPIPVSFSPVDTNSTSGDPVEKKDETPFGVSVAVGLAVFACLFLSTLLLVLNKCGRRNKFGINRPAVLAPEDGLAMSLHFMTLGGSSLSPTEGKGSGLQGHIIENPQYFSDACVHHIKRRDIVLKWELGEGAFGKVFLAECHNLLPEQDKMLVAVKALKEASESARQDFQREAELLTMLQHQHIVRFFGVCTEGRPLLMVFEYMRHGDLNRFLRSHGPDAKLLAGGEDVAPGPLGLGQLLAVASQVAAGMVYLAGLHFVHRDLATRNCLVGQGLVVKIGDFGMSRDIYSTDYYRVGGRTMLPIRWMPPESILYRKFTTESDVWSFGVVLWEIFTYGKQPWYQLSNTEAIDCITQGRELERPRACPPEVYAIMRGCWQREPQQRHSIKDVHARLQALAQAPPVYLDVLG
Procedure: NIH3T3 cells transfected with trkA were grown in 100 mm dishes. Subconfluent cells were serum-starved by replacing media with serum-free 0.05% BSA-DMEM containing compound (100 nM and 1 μM) or DMSO (added to controls) for one hour at 37° C. NGF (Harlan/Bioproducts for Science) was then added to the cells at a concentration of 10 ng/ml for 5 minutes. Cells were lysed in buffer containing detergent and protease inhibitors. Clarified cell lysates were normalized to protein using BCA method and immunoprecipitated with antII-trk antibody. Polyclonal antII-trk antibody was prepared against a peptide corresponding to the 14 amino acids at the carboxy terminus of trk (Martin-Zanca et al., Mol. Cell. Biol. 9: 24-33, 1989). The immune complexes were collected on Protein A Sepharose beads (Sigma Chem. Co., St. Lois, Mo.), separated by SDS polyacrylamide gel electrophoresis (SDS-PAGE), and transferred to a polyvinylidene difluoride (PVDF) membrane. The membrane was immunoblotted with antII-phosphotyrosine antibody (UBI), followed by incubation with horseradish peroxidase coupled goat antII-mouse IgG (Bio-Rad Laboratories, Hercules, Calif.). Phosphorylated proteins were visualized using ECL (Arnersham Life Science, Inc., Arlington Heights, Ill.). The area of the trk protein band was measured and compared to NGF-stimulated control. The inhibition scoring system used, based on percent decrease in trk protein band, was as follows: 0=no decrease; 1=1-25%; 2=26-49%; 3=50-75%; 4=76-100%.

T1 sequence (P04629 440-796 limits assumed): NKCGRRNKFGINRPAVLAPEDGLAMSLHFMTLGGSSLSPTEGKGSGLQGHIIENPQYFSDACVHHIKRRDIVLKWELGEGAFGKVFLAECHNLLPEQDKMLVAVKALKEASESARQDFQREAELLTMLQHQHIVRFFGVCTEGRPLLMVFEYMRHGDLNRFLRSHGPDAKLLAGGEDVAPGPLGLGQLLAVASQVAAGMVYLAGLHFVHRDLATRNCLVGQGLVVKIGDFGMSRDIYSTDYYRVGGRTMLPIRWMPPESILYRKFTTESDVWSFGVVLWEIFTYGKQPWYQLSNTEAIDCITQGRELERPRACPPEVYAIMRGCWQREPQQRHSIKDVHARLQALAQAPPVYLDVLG

Row | Compound | IC50 [1] [µM] | IC50 [5] [µM] | IC50 [2] [µM] | Cell Score @ 100 nM (percent decrease in trk protein band) [6] | Cell Score @ 1 uM (percent decrease in trk protein band) [6] | inhibition at 0.3 µM ([2]; 300 nM compound) [%] | inhibition at 0.3 µM ([3]; 300 nM compound) [%] | also measured
1 | O=C1NCc2c1c1c(c3[nH]c4ccccc4c23)C(C2(O)CCCC2CN2CCOCC2)c2ccccc2-1 (mixture of isomers) [II-17] | – | – | – | – | – | – | – | trkA kinase activity % Inh. @ 300 nM (values in parentheses) [1]: (33) %; VEGF receptor kinase activity % Inh. @ 300 nM (values in parentheses) ([2]; 300 nM compound): (33) %; PDGFRβ % inh @ 300 nM (values in parentheses) ([3]; 300 nM compound): (47) %
2 | CC(C)(C)C(=O)OCC1(C2c3ccccc3-c3c4c(c5c([nH]c6ccccc65)c32)CNC4=O)CCCO1 (mixture of isomers) [II-20] | – | – | – | – | – | – | – | trkA kinase activity % Inh. @ 300 nM (values in parentheses) [1]: (39) %; Spinal Cord ChAT (% control) Activity at 30 nM ([4]; 30 nM compound): 132 % control; Spinal Cord ChAT (% control) Maximal Activity ([4]; @ 500 nM): 191 @ 500 nM % control
3 | O=C1NCc2c1c1c(c3[nH]c4ccccc4c23)C(C2CCC(O)O2)c2ccccc2-1 (racemic) [II-23] | 0.019 | 0.644 | 0.079 | 2 (2=26-49%) | 4 (4=76-100%) | – | – | IC50 ([3]; 20 μM ATP): 0.648 µM
4 | O=C1NCc2c1c1c(c3[nH]c4ccccc4c23)C(C2(CO)CCCO2)c2ccccc2-1 (single isomer, unassigned) [II-36] | 0.02 | > 10 | 0.846 | 1 (1=1-25%) | 4 (4=76-100%) | – | – | –
5 | O=C1NCc2c1c1c(c3[nH]c4ccccc4c23)C(C2CCC(O)O2)c2ccccc2-1 (single isomer, unassigned) [II-38] | 0.405 | > 10 | 5.1 | 2 (2=26-49%) | 2 (2=26-49%) | – | – | –
6 | CC1(C2c3ccccc3-c3c4c(c5c([nH]c6ccccc65)c32)CNC4=O)CC(O)(CO)CO1 (stereo not shown) [II-26] | 0.045 | 2.07 | – | 2 (2=26-49%) | 4 (4=76-100%) | 48 | – | –
7 | COCCOC(=O)c1ccc2[nH]c3c4c(c5c(c3c2c1)CNC5=O)-c1ccccc1C4C1CCC(OCCOC)O1 (stereo not shown) [II-52] | 0.027 | – | – | 2 (2=26-49%) | 3 (3=50-75%) | – | 45 | –
8 | COc1ccc2c(c1)C(C1(CO)CCCO1)c1c-2c2c(c3c1[nH]c1ccccc13)CNC2=O (stereo not shown) [II-53] | 0.008 | 2.21 | 0.209 | 4 (4=76-100%) | 4 (4=76-100%) | – | – | –
9 | CC1C=CC(C(O)C2c3ccccc3-c3c4c(c5c([nH]c6ccccc65)c32)CNC4=O)n2c(=O)n(-c3ccccc3)c(=O)n21 (stereo not shown) [II-64] | 0.399 | – | – | – | – | 20 | 29 | –
10 | O=C1NCc2c1c1c(c3c2c2ccccc2n3CC2CC2)C(CC2CC2)c2ccccc2-1 (stereo not shown) [II-65] | 0.32 | – | – | – | – | 26 | 5 | Protein kinase C activity, values in parentheses ([5]; concentration not given): (20)
11 | COC(=O)[C@H]1CSC(CCn2c3ccccc3c3c4c(c5c(c32)Cc2ccccc2-5)C(=O)NC4)N1 (stereo partly shown) [II-67] | 0.555 | – | – | – | – | 65 | 23 | –
12 | CCNC(=O)OCC1(C2c3ccccc3-c3c4c(c5c6ccccc6n(C(=O)NCC)c5c32)CNC4=O)CCCO1 (stereo not shown) [II-68] | 0.245 | – | – | – | – | 31 | 0 | –
13 | CCNC(=O)n1c2ccccc2c2c3c(c4c(c21)C(C1(CO)CCCO1)c1ccccc1-4)C(=O)NC3 (stereo not shown) [II-69] | 0.024 | – | – | – | – | 49 | 18 | –

From patent US6841567B1, “Cyclic substituted fused pyrrolocarbazoles and isoindolones” (Cephalon, Inc., priority 1999, dated 2005)
